Here are results for one substance from patent US20030004131A1, “OENOTHEIN MEDICAMENTS” (priority 1999, published 2003).

The nature of test [1]: xanthine oxidase/acetaldehyde spectrophotometric superoxide radical scavenging method. Type of test: biochemical. How it is done:
The scavenging of free superoxide radicals is quantitated spectrometrically and expressed in terms of percentage of radicals scavenged. Assays were performed with 1% (w/v) and 0.1% (w/v) dilutions of the dried extract, which yielded up to 100% scavenging activity and up to 99% scavenging activity respectively.

The subject of test [2] is hen's-egg chorioallantoic membrane (CAM). Kind of test: hen's-egg chorioallantoic membrane (CAM) irritation model with 15% lactic acid as standard irritant. Type of test: in vivo. Conditions: CAM treated with 15% lactic acid; sample applied before the irritant (prophylactic use); oenothein-B tested at 1% (weight to volume) dilution. As for the experimental part: In the hen's-egg chorioallantoic membrane (CAM) model, in which the CAM is treated with 15% lactic acid as a standard irritant, the development of manifestations of membrane irritation were tracked and scored according to published methods for assessing irritancy (Luepke and Kemper, 1986, Food and Chemical Toxicology 24:495; Spielmann et al. 1997, Food and Chemical Toxicology 35:39). A sample of the oenothein-B extract from Canadian Willowherb described in Example 1 was tested at a 1% (weight to volume) dilution for activity in the CAM model.

For the substance oenothein-B, the “scavenging activity (percentage of radicals scavenged)” value is “up to 99%” in test [1] (0.1% (w/v) dilution of the dried extract) and “up to 100%” in test [1] (1% (w/v) dilution of the dried extract). The decrease in irritation entry in test [2] is listed as “up to 70%”.
